Oligonucleotides are given in HELM: sugar(base)linkage, 5' to 3'; d 2'-deoxyribose, r ribose, m 2'-O-methylribose, p phosphate. ss, as = sense and antisense strand
Further: test concentration or dose not given here.

The data set concerns the target Mmp7 (rat). The experiment in a line: reporter assay of Huesken 2005. Conditions: siRNA. A general note: A reporter such as luciferase makes a cellular process visible.
For the substance “RNA1{r(G)p.r(G)p.r(C)p.r(C)p.r(A)p.r(C)p.r(U)p.r(C)p.r(U)p.r(C)p.r(U)p.r(G)p.r(G)p.r(G)p.r(U)p.r(C)p.r(U)p.r(G)p.r(G)p.d(T)p.d(T)}|RNA2{r(C)p.r(C)p.r(A)p.r(G)p.r(A)p.r(C)p.r(C)p.r(C)p.r(A)p.r(G)p.r(A)p.r(G)p.r(A)p.r(G)p.r(U)p.r(G)p.r(G)p.r(C)p.r(C)p.d(A)p.d(A)}$$$RNA1{StrandType:ss}|RNA2{StrandType:as}$”, the normalised inhibition (eCFP-eYFP dual reporter) is 41.4%.
With “RNA1{r(G)p.r(G)p.r(C)p.r(C)p.r(A)p.r(G)p.r(G)p.r(A)p.r(A)p.r(A)p.r(C)p.r(A)p.r(C)p.r(U)p.r(C)p.r(U)p.r(A)p.r(G)p.r(G)p.d(T)p.d(T)}|RNA2{r(C)p.r(C)p.r(U)p.r(A)p.r(G)p.r(A)p.r(G)p.r(U)p.r(G)p.r(U)p.r(U)p.r(U)p.r(C)p.r(C)p.r(U)p.r(G)p.r(G)p.r(C)p.r(C)p.d(C)p.d(A)}$$$RNA1{StrandType:ss}|RNA2{StrandType:as}$” the figure was 54.5%; with “RNA1{r(G)p.r(G)p.r(C)p.r(G)p.r(C)p.r(A)p.r(G)p.r(A)p.r(A)p.r(U)p.r(U)p.r(A)p.r(U)p.r(C)p.r(U)p.r(U)p.r(A)p.r(G)p.r(G)p.d(T)p.d(T)}|RNA2{r(C)p.r(C)p.r(U)p.r(A)p.r(A)p.r(G)p.r(A)p.r(U)p.r(A)p.r(A)p.r(U)p.r(U)p.r(C)p.r(U)p.r(G)p.r(C)p.r(G)p.r(C)p.r(C)p.d(T)p.d(G)}$$$RNA1{StrandType:ss}|RNA2{StrandType:as}$”, 134%.
In the case of “RNA1{r(G)p.r(G)p.r(G)p.r(A)p.r(A)p.r(C)p.r(A)p.r(G)p.r(G)p.r(C)p.r(G)p.r(C)p.r(A)p.r(G)p.r(A)p.r(A)p.r(U)p.r(U)p.r(A)p.d(T)p.d(T)}|RNA2{r(U)p.r(A)p.r(A)p.r(U)p.r(U)p.r(C)p.r(U)p.r(G)p.r(C)p.r(G)p.r(C)p.r(C)p.r(U)p.r(G)p.r(U)p.r(U)p.r(C)p.r(C)p.r(C)p.d(A)p.d(C)}$$$RNA1{StrandType:ss}|RNA2{StrandType:as}$”, the normalised inhibition (eCFP-eYFP dual reporter) is 93.6%.
With “RNA1{r(G)p.r(G)p.r(G)p.r(A)p.r(G)p.r(A)p.r(U)p.r(C)p.r(A)p.r(C)p.r(G)p.r(G)p.r(A)p.r(G)p.r(A)p.r(C)p.r(A)p.r(A)p.r(C)p.d(T)p.d(T)}|RNA2{r(G)p.r(U)p.r(U)p.r(G)p.r(U)p.r(C)p.r(U)p.r(C)p.r(C)p.r(G)p.r(U)p.r(G)p.r(A)p.r(U)p.r(C)p.r(U)p.r(C)p.r(C)p.r(C)p.d(C)p.d(T)}$$$RNA1{StrandType:ss}|RNA2{StrandType:as}$” the figure was 94.2%; with “RNA1{r(G)p.r(G)p.r(G)p.r(C)p.r(C)p.r(A)p.r(G)p.r(G)p.r(A)p.r(A)p.r(A)p.r(C)p.r(A)p.r(C)p.r(U)p.r(C)p.r(U)p.r(A)p.r(G)p.d(T)p.d(T)}|RNA2{r(C)p.r(U)p.r(A)p.r(G)p.r(A)p.r(G)p.r(U)p.r(G)p.r(U)p.r(U)p.r(U)p.r(C)p.r(C)p.r(U)p.r(G)p.r(G)p.r(C)p.r(C)p.r(C)p.d(A)p.d(T)}$$$RNA1{StrandType:ss}|RNA2{StrandType:as}$”, 83.5%.
With “RNA1{r(G)p.r(G)p.r(G)p.r(G)p.r(C)p.r(C)p.r(A)p.r(G)p.r(G)p.r(C)p.r(C)p.r(U)p.r(C)p.r(G)p.r(G)p.r(C)p.r(G)p.r(G)p.r(A)p.d(T)p.d(T)}|RNA2{r(U)p.r(C)p.r(C)p.r(G)p.r(C)p.r(C)p.r(G)p.r(A)p.r(G)p.r(G)p.r(C)p.r(C)p.r(U)p.r(G)p.r(G)p.r(C)p.r(C)p.r(C)p.r(C)p.d(G)p.d(G)}$$$RNA1{StrandType:ss}|RNA2{StrandType:as}$” the figure was 50.8%; with “RNA1{r(G)p.r(G)p.r(U)p.r(C)p.r(U)p.r(G)p.r(G)p.r(G)p.r(U)p.r(C)p.r(A)p.r(C)p.r(U)p.r(C)p.r(U)p.r(U)p.r(C)p.r(U)p.r(G)p.d(T)p.d(T)}|RNA2{r(C)p.r(A)p.r(G)p.r(A)p.r(A)p.r(G)p.r(A)p.r(G)p.r(U)p.r(G)p.r(A)p.r(C)p.r(C)p.r(C)p.r(A)p.r(G)p.r(A)p.r(C)p.r(C)p.d(C)p.d(A)}$$$RNA1{StrandType:ss}|RNA2{StrandType:as}$”, 73.8%; with “RNA1{r(G)p.r(G)p.r(U)p.r(G)p.r(A)p.r(G)p.r(G)p.r(A)p.r(C)p.r(U)p.r(C)p.r(A)p.r(G)p.r(G)p.r(C)p.r(G)p.r(U)p.r(G)p.r(A)p.d(T)p.d(T)}|RNA2{r(U)p.r(C)p.r(A)p.r(C)p.r(G)p.r(C)p.r(C)p.r(U)p.r(G)p.r(A)p.r(G)p.r(U)p.r(C)p.r(C)p.r(U)p.r(C)p.r(A)p.r(C)p.r(C)p.d(A)p.d(T)}$$$RNA1{StrandType:ss}|RNA2{StrandType:as}$”, 94.6%.
For the substance “RNA1{r(G)p.r(G)p.r(U)p.r(U)p.r(U)p.r(G)p.r(C)p.r(C)p.r(G)p.r(G)p.r(A)p.r(G)p.r(A)p.r(C)p.r(U)p.r(G)p.r(G)p.r(A)p.r(A)p.d(T)p.d(T)}|RNA2{r(U)p.r(U)p.r(C)p.r(C)p.r(A)p.r(G)p.r(U)p.r(C)p.r(U)p.r(C)p.r(C)p.r(G)p.r(G)p.r(C)p.r(A)p.r(A)p.r(A)p.r(C)p.r(C)p.d(G)p.d(A)}$$$RNA1{StrandType:ss}|RNA2{StrandType:as}$”, the normalised inhibition (eCFP-eYFP dual reporter) was found to be 103%.
Regarding “RNA1{r(G)p.r(U)p.r(C)p.r(A)p.r(U)p.r(G)p.r(G)p.r(A)p.r(G)p.r(A)p.r(U)p.r(A)p.r(A)p.r(U)p.r(G)p.r(C)p.r(A)p.r(G)p.r(A)p.d(T)p.d(T)}|RNA2{r(U)p.r(C)p.r(U)p.r(G)p.r(C)p.r(A)p.r(U)p.r(U)p.r(A)p.r(U)p.r(C)p.r(U)p.r(C)p.r(C)p.r(A)p.r(U)p.r(G)p.r(A)p.r(C)p.d(A)p.d(C)}$$$RNA1{StrandType:ss}|RNA2{StrandType:as}$”, the normalised inhibition (eCFP-eYFP dual reporter) amounted to 115%.
“RNA1{r(G)p.r(U)p.r(C)p.r(C)p.r(U)p.r(A)p.r(A)p.r(G)p.r(U)p.r(G)p.r(G)p.r(C)p.r(A)p.r(U)p.r(U)p.r(C)p.r(C)p.r(A)p.r(G)p.d(T)p.d(T)}|RNA2{r(C)p.r(U)p.r(G)p.r(G)p.r(A)p.r(A)p.r(U)p.r(G)p.r(C)p.r(C)p.r(A)p.r(C)p.r(U)p.r(U)p.r(A)p.r(G)p.r(G)p.r(A)p.r(C)p.d(T)p.d(G)}$$$RNA1{StrandType:ss}|RNA2{StrandType:as}$”: the normalised inhibition (eCFP-eYFP dual reporter) came to 110%.
“RNA1{r(G)p.r(U)p.r(G)p.r(A)p.r(G)p.r(G)p.r(A)p.r(C)p.r(U)p.r(C)p.r(A)p.r(G)p.r(G)p.r(C)p.r(G)p.r(U)p.r(G)p.r(A)p.r(A)p.d(T)p.d(T)}|RNA2{r(U)p.r(U)p.r(C)p.r(A)p.r(C)p.r(G)p.r(C)p.r(C)p.r(U)p.r(G)p.r(A)p.r(G)p.r(U)p.r(C)p.r(C)p.r(U)p.r(C)p.r(A)p.r(C)p.d(C)p.d(A)}$$$RNA1{StrandType:ss}|RNA2{StrandType:as}$”: the normalised inhibition (eCFP-eYFP dual reporter) is 89.4%.
On to “RNA1{r(G)p.r(U)p.r(G)p.r(U)p.r(C)p.r(A)p.r(U)p.r(G)p.r(G)p.r(A)p.r(G)p.r(A)p.r(U)p.r(A)p.r(A)p.r(U)p.r(G)p.r(C)p.r(A)p.d(T)p.d(T)}|RNA2{r(U)p.r(G)p.r(C)p.r(A)p.r(U)p.r(U)p.r(A)p.r(U)p.r(C)p.r(U)p.r(C)p.r(C)p.r(A)p.r(U)p.r(G)p.r(A)p.r(C)p.r(A)p.r(C)p.d(G)p.d(G)}$$$RNA1{StrandType:ss}|RNA2{StrandType:as}$”, for which the normalised inhibition (eCFP-eYFP dual reporter) amounted to 112%.
Then “RNA1{r(G)p.r(U)p.r(G)p.r(U)p.r(G)p.r(G)p.r(A)p.r(G)p.r(U)p.r(G)p.r(C)p.r(C)p.r(A)p.r(G)p.r(A)p.r(U)p.r(G)p.r(U)p.r(U)p.d(T)p.d(T)}|RNA2{r(A)p.r(A)p.r(C)p.r(A)p.r(U)p.r(C)p.r(U)p.r(G)p.r(G)p.r(C)p.r(A)p.r(C)p.r(U)p.r(C)p.r(C)p.r(A)p.r(C)p.r(A)p.r(C)p.d(C)p.d(T)}$$$RNA1{StrandType:ss}|RNA2{StrandType:as}$”, with 93.9%.
With “RNA1{r(G)p.r(U)p.r(U)p.r(C)p.r(U)p.r(G)p.r(U)p.r(G)p.r(A)p.r(U)p.r(G)p.r(U)p.r(A)p.r(C)p.r(C)p.r(C)p.r(U)p.r(A)p.r(C)p.d(T)p.d(T)}|RNA2{r(G)p.r(U)p.r(A)p.r(G)p.r(G)p.r(G)p.r(U)p.r(A)p.r(C)p.r(A)p.r(U)p.r(C)p.r(A)p.r(C)p.r(A)p.r(G)p.r(A)p.r(A)p.r(C)p.d(T)p.d(G)}$$$RNA1{StrandType:ss}|RNA2{StrandType:as}$” the figure was 105%; with “RNA1{r(G)p.r(U)p.r(U)p.r(G)p.r(C)p.r(A)p.r(G)p.r(A)p.r(A)p.r(U)p.r(U)p.r(C)p.r(U)p.r(C)p.r(A)p.r(C)p.r(U)p.r(A)p.r(A)p.d(T)p.d(T)}|RNA2{r(U)p.r(U)p.r(A)p.r(G)p.r(U)p.r(G)p.r(A)p.r(G)p.r(A)p.r(A)p.r(U)p.r(U)p.r(C)p.r(U)p.r(G)p.r(C)p.r(A)p.r(A)p.r(C)p.d(A)p.d(T)}$$$RNA1{StrandType:ss}|RNA2{StrandType:as}$”, 122%; with “RNA1{r(U)p.r(A)p.r(A)p.r(U)p.r(G)p.r(C)p.r(C)p.r(A)p.r(A)p.r(A)p.r(C)p.r(A)p.r(G)p.r(U)p.r(C)p.r(C)p.r(U)p.r(A)p.r(A)p.d(T)p.d(T)}|RNA2{r(U)p.r(U)p.r(A)p.r(G)p.r(G)p.r(A)p.r(C)p.r(U)p.r(G)p.r(U)p.r(U)p.r(U)p.r(G)p.r(G)p.r(C)p.r(A)p.r(U)p.r(U)p.r(A)p.d(G)p.d(T)}$$$RNA1{StrandType:ss}|RNA2{StrandType:as}$”, 105%.
In the case of “RNA1{r(U)p.r(A)p.r(C)p.r(C)p.r(U)p.r(U)p.r(C)p.r(A)p.r(C)p.r(G)p.r(A)p.r(C)p.r(U)p.r(C)p.r(U)p.r(A)p.r(A)p.r(A)p.r(A)p.d(T)p.d(T)}|RNA2{r(U)p.r(U)p.r(U)p.r(U)p.r(A)p.r(G)p.r(A)p.r(G)p.r(U)p.r(C)p.r(G)p.r(U)p.r(G)p.r(A)p.r(A)p.r(G)p.r(G)p.r(U)p.r(A)p.d(A)p.d(A)}$$$RNA1{StrandType:ss}|RNA2{StrandType:as}$”, the normalised inhibition (eCFP-eYFP dual reporter) came to 110%.
As to “RNA1{r(U)p.r(A)p.r(C)p.r(U)p.r(G)p.r(G)p.r(A)p.r(C)p.r(G)p.r(G)p.r(A)p.r(U)p.r(G)p.r(G)p.r(U)p.r(G)p.r(A)p.r(G)p.r(G)p.d(T)p.d(T)}|RNA2{r(C)p.r(C)p.r(U)p.r(C)p.r(A)p.r(C)p.r(C)p.r(A)p.r(U)p.r(C)p.r(C)p.r(G)p.r(U)p.r(C)p.r(C)p.r(A)p.r(G)p.r(U)p.r(A)p.d(C)p.d(T)}$$$RNA1{StrandType:ss}|RNA2{StrandType:as}$”, the normalised inhibition (eCFP-eYFP dual reporter) was 32.6%.
